Source: ChEMBL document CHEMBL4196029, “New MD2 inhibitors derived from curcumin with improved anti-inflammatory activity” (Eur J Med Chem, 2018)
Calls of active or inactive are those of the source. No cut-off for these calls is given here.

Tested on: not listed separately
Assay: Chemical stability in pH 7.4 phosphate buffer at 20 uM measured at 5 mins time intervals for 25 mins by UV absorbance spectroscopic method
Format: physicochemical
Settings: pH 7.4, 25 min

Stability | SMILES
Stable | O=C1/C(=C/c2cccc(O)c2)COC/C1=C\c1cccc(O)c1
Unstable | CN1C/C(=C\c2ccccc2Br)C(=O)/C(=C/c2ccccc2Br)C1
Stable | CCN1C/C(=C\c2cccc(OC)c2OC)C(=O)/C(=C/c2cccc(OC)c2OC)C1
Unstable | COc1cc(/C=C/C(=O)CC(=O)/C=C/c2ccc(O)c(OC)c2)ccc1O [CURCUMIN]

Tested on: Peritoneal macrophage
Assay: Anti-inflammatory activity in C57BL/6 mouse primary peritoneal macrophages assessed as inhibition of LPS-induced IL-6 secretion at 10 uM preincubated for 30 mins followed by LPS addition measured after 24 hrs by ELISA relative to control
Format: functional
Settings: not given

SMILES | inhibition
COc1ccc(/C=C2\COC/C(=C\c3ccc(OC)c(OC)c3)C2=O)cc1OC | inactive
COc1ccc(/C=C2\COC/C(=C\c3ccc(OC)cc3)C2=O)cc1 | inactive
COc1ccccc1/C=C1\COC/C(=C\c2ccccc2OC)C1=O | Active
O=C1/C(=C/c2ccccc2Br)COC/C1=C\c1ccccc1Br | inactive
COc1cc(/C=C/C(=O)CC(=O)/C=C/c2ccc(O)c(OC)c2)ccc1O [CURCUMIN] | Active
COc1cccc(/C=C2\COC/C(=C\c3cccc(OC)c3OC)C2=O)c1OC | Active

Same assay, conditions: C57BL/6, Peritoneal macrophage

SMILES | inhibition at 10 µM [%]
O=C1/C(=C/c2cccc(O)c2)COC/C1=C\c1cccc(O)c1 | > 80
CN1C/C(=C\c2ccccc2Br)C(=O)/C(=C/c2ccccc2Br)C1 | > 80
CCN1C/C(=C\c2ccc(F)cc2)C(=O)/C(=C/c2ccc(F)cc2)C1 | > 80
CCN1C/C(=C\c2cccc(OC)c2OC)C(=O)/C(=C/c2cccc(OC)c2OC)C1 | > 80
COc1cc(/C=C2\CSC/C(=C\c3cc(OC)c(OC)c(OC)c3)C2=O)cc(OC)c1OC | 60

Tested on: Peritoneal macrophage
Assay: Anti-inflammatory activity in C57BL/6 mouse primary peritoneal macrophages assessed as inhibition of LPS-induced TNFalpha secretion at 1 to 10 uM preincubated for 30 mins followed by LPS addition measured after 24 hrs by ELISA
Format: functional, cell-based
Settings: not given

SMILES | inhibition
O=C1/C(=C/c2cccc(O)c2)COC/C1=C\c1cccc(O)c1 | Active
CN1C/C(=C\c2ccccc2Br)C(=O)/C(=C/c2ccccc2Br)C1 | Active
CCN1C/C(=C\c2ccc(F)cc2)C(=O)/C(=C/c2ccc(F)cc2)C1 | Active
CCN1C/C(=C\c2cccc(OC)c2OC)C(=O)/C(=C/c2cccc(OC)c2OC)C1 | Active

Tested on: Peritoneal macrophage
Assay: Anti-inflammatory activity in C57BL/6 mouse primary peritoneal macrophages assessed as inhibition of LPS-induced TNFalpha secretion at 10 uM preincubated for 30 mins followed by LPS addition measured after 24 hrs by ELISA relative to control
Format: functional
Settings: not given

SMILES | inhibition
COc1ccc(/C=C2\COC/C(=C\c3ccc(OC)c(OC)c3)C2=O)cc1OC | inactive
COc1ccc(/C=C2\COC/C(=C\c3ccc(OC)cc3)C2=O)cc1 | inactive
COc1ccccc1/C=C1\COC/C(=C\c2ccccc2OC)C1=O | Active
O=C1/C(=C/c2ccccc2Br)COC/C1=C\c1ccccc1Br | inactive
COc1cc(/C=C/C(=O)CC(=O)/C=C/c2ccc(O)c(OC)c2)ccc1O [CURCUMIN] | Active
COc1cccc(/C=C2\COC/C(=C\c3cccc(OC)c3OC)C2=O)c1OC | Active

Same assay, conditions: C57BL/6, Peritoneal macrophage

SMILES | inhibition at 10 µM [%]
O=C1/C(=C/c2cccc(O)c2)COC/C1=C\c1cccc(O)c1 | > 80
CN1C/C(=C\c2ccccc2Br)C(=O)/C(=C/c2ccccc2Br)C1 | > 80
CCN1C/C(=C\c2ccc(F)cc2)C(=O)/C(=C/c2ccc(F)cc2)C1 | > 80
CCN1C/C(=C\c2cccc(OC)c2OC)C(=O)/C(=C/c2cccc(OC)c2OC)C1 | > 80
COc1cc(/C=C2\CSC/C(=C\c3cc(OC)c(OC)c(OC)c3)C2=O)cc(OC)c1OC | 25

Tested on: Peritoneal macrophage
Assay: Anti-inflammatory activity in C57BL/6 mouse primary peritoneal macrophages assessed as inhibition of LPS-induced TNFalpha secretion at 5 uM preincubated for 30 mins followed by LPS addition measured after 24 hrs by ELISA relative to control
Format: functional
Settings: C57BL/6, Peritoneal macrophage

SMILES | inhibition at 5 µM [%]
O=C1/C(=C/c2cccc(O)c2)COC/C1=C\c1cccc(O)c1 | > 50
CN1C/C(=C\c2ccccc2Br)C(=O)/C(=C/c2ccccc2Br)C1 | > 50
CCN1C/C(=C\c2ccc(F)cc2)C(=O)/C(=C/c2ccc(F)cc2)C1 | > 50
CCN1C/C(=C\c2cccc(OC)c2OC)C(=O)/C(=C/c2cccc(OC)c2OC)C1 | > 50

Tested on: Peritoneal macrophage
Assay: Anti-inflammatory activity in C57BL/6 mouse primary peritoneal macrophages assessed as inhibition of LPS-induced IL-6 secretion at 1 to 10 uM preincubated for 30 mins followed by LPS addition measured after 24 hrs by ELISA
Format: functional, cell-based
Settings: not given

SMILES | inhibition
O=C1/C(=C/c2cccc(O)c2)COC/C1=C\c1cccc(O)c1 | Active
CN1C/C(=C\c2ccccc2Br)C(=O)/C(=C/c2ccccc2Br)C1 | Active
CCN1C/C(=C\c2ccc(F)cc2)C(=O)/C(=C/c2ccc(F)cc2)C1 | Active
CCN1C/C(=C\c2cccc(OC)c2OC)C(=O)/C(=C/c2cccc(OC)c2OC)C1 | Active

Tested on: Peritoneal macrophage
Assay: Anti-inflammatory activity in C57BL/6 mouse primary peritoneal macrophages assessed as inhibition of LPS-induced IL-6 secretion at 2.5 uM preincubated for 30 mins followed by LPS addition measured after 24 hrs by ELISA relative to control
Format: functional
Settings: C57BL/6, Peritoneal macrophage

SMILES | inhibition at 2.5 µM [%]
O=C1/C(=C/c2cccc(O)c2)COC/C1=C\c1cccc(O)c1 | > 50
CN1C/C(=C\c2ccccc2Br)C(=O)/C(=C/c2ccccc2Br)C1 | > 50
CCN1C/C(=C\c2ccc(F)cc2)C(=O)/C(=C/c2ccc(F)cc2)C1 | > 50
CCN1C/C(=C\c2cccc(OC)c2OC)C(=O)/C(=C/c2cccc(OC)c2OC)C1 | > 50
